{"source": "patent US20150086627A1", "about": "“DOSAGE FORMS OF HALOFUGINONE AND METHODS OF USE” (priority 2012, published 2015)", "key": {"[1]": {"test": "Plasma pharmacokinetics of halofuginone in male beagle dogs (Example B)", "format": "in vivo", "conditions": "dog", "method": "Five groups of five male beagle dogs (25 total dogs) were orally administered various compositions of halofuginone solutions. […] The dogs were fasted overnight prior to administration, and food was returned four hours post-administration. Plasma was drawn from each animal at the time of administration, and then at eight successive time points (0.5, 1, 2, 4, 8, 12, 24, and 48 hours post-administration).\nThe plasma samples, collected from the dogs at the various time points, were assayed for halofuginone concentrations using HPLC-MS/MS (ACE Excel 2C18 AR, 50×2.1 mm column). [Cmax: maximum observed halofuginone concentration; tmax: time point at Cmax; AUC(0-t): AUC to the last non-zero concentration (t is the corresponding time); AUC(0-∞): AUC(0-∞)=AUC(0-t)+AUC(t-∞); t1/2: half-life; time taken for drug plasma concentration to fall by one-half; Vz_obs: observed volume of distribution; Cl_obs: observed clearance]"}, "beagle dogs": {"system": "beagle dogs", "conditions": "6 Beagle dogs, oral solution 0.15 mg/kg", "method": "Two groups of 6 male Beagle dogs were dosed with two formulations or two routes of administration of Halofuginone hydrobromide. In a cross-over study design, one group received an oral (PO) dose at ˜0.15 mg/kg as enteric-coated (EC) tablets in a gelatin capsule and then another oral dose at 0.15 mg/kg as a solution 7 days later. The second group received a subcutaneous (SC) dose at 0.03 mg/kg as a solution and then an intravenous (IV) dose at 0.05 mg/kg as a solution. The test article was administered once for each dose level and dosage form. The animals were dosed once a week or after completing at least a 7 day washout period. The dose formulations of Halofuginone hydrobromide were EC tablets or 0.3 mg/mL solutions. The EC tablets contained 0.075 mg of Halofuginone hydrobromide. The tablets (20/dog) were loaded into a gelatin capsule prior to dosing.\nEach animal received a physical examination prior to dosing, with cage side observations for mortality and morbidity twice daily thereafter. Detailed clinical observations were performed prior to dosing and at 15 minute (min) intervals during the first 2 hours (h) postdose, at 4, 8, and 24 h postdose on dosing days. […]"}, "[2]": {"test": "Plasma pharmacokinetics of Halofuginone hydrobromide in Beagle dogs (Example C)", "conditions": "dog, in vivo; for half-life: t1/2", "method": "Blood samples were collected from the jugular, cephalic, or saphenous veins into tubes containing EDTA at the following time points: 0, 0.5, 1, 2, 4, 8, 12, 24, and 48 h postdose. Blood samples were kept on wet ice until processing. Blood samples were centrifuged at 3200 RPM for 10 min at ˜5° C. Plasma samples were directly transferred to a 96-well plate tube (1.1 mL). Plug caps were placed on the tubes. Plasma samples were stored at −20±5° C. until they were shipped for analysis.\nStatistical analysis of PK parameters for dogs treated with both enteric and oral solutions were calculated using Excel® spreadsheets. Summary statistics were derived for the following PK parameters for each dog receiving both the dog EC tablets and the oral drug as a clear solution in Group 1: • Cmax (ng/mL): Maximum Observed Concentration • tmax (h): Time Point at Cmax • AUC(0−t) (ng·h/mL): AUC to the last non-zero concentration (t is the corresponding time) • AUC(0−∞) (ng·h/mL): AUC(0-∞)=AUC(0-t)+AUC(t-∞) • t1/2(h): Half-life; time taken for drug plasma concentration to fall by one-half • % F: Bioavailability; [AUC(0-t)×*Dose IV (mg/kg)]/[AUC(0-t)IV*Dose×(mg/kg)] Paired differences for each dog were determined by subtracting the summary PK value as follows: […]"}, "dogs": {"system": "dogs", "test": "Previous study in dogs, daily oral dosing for up to 28 days", "format": "in vivo", "method": "The dose levels were selected based on the results of a previous study in dogs in which the high-dose group was dosed at 0.15 mg/kg/day for up to 28 days (this dose was tolerated for the entire course of the study)."}, "Plasmodium berghei": {"system": "Plasmodium berghei", "conditions": "Plasmodium berghei-infected mice; cited from earlier work"}, "mdx mice": {"system": "mdx mice", "conditions": "cited from earlier work"}, "cell lines": {"system": "cell lines", "conditions": "cited from earlier work"}, "[3]": {"system": "human leiomyosarcoma tumor cells", "conditions": "low concentrations; cells stimulated by serum or HB-EGF; cited from earlier work"}, "[4]": {"system": "vascular SMC and fibroblasts", "conditions": "cited from earlier work"}, "mice": {"system": "mice", "conditions": "mouse, in vivo, cited from earlier work"}, "[5]": {"conditions": "male, beagle, in vivo, po, 0.15 mg/kg"}, "[6]": {"conditions": "male, Beagle, iv, 0.05 mg/kg, Mean Conc. (plasma)"}, "[7]": {"conditions": "male, Beagle, iv, 0.05 mg/kg, Sample Conc. (plasma)"}, "[8]": {"conditions": "male, Beagle, po, 0.15 mg/kg, Mean Conc. (plasma)"}, "[9]": {"conditions": "male, Beagle, sc, 0.03 mg/kg, Mean Conc. (plasma)"}, "[10]": {"conditions": "male, Beagle, sc, 0.03 mg/kg, Sample Conc. (plasma)"}}, "note": "Structures can show the parent of a compound that is named as a salt. Where two headings read alike, the source gives them in different places."}
{"smiles": "O=C(C[C@@H]1NCCC[C@H]1O)Cn1cnc2cc(Br)c(Cl)cc2c1=O", "note": "[Halofuginone hydrobromide, 7-Bromo-6-chloro-3-[3-[(2S,3R)-3-hydroxy-2-piperidinyl]-2-oxopropyl]-4-quinazolinone]", "values": [{"measurement": "half-life", "setting": "[1]; plasma, male beagle dogs, oral 0.15 mg/kg aqueous solution, mean", "result": 889, "unit": "min"}, {"measurement": "AUC(0-inf)", "setting": "[1]; [5]", "result": 49.1, "unit": "ng·h/mL"}, {"measurement": "AUC(0-t)", "setting": "[1]; [5]", "result": 39.5, "unit": "ng·h/mL"}, {"measurement": "Cl_obs", "setting": "[1]; [5]", "result": 57.8, "unit": "mL/min/kg"}, {"measurement": "Cmax", "setting": "[1]; [5]", "result": 5.26, "unit": "ng/mL"}, {"measurement": "Tmax", "setting": "[1]; [5]", "result": 54, "unit": "min"}, {"measurement": "Vz_obs", "setting": "[1]; [5]", "result": 70.73, "unit": "L/kg"}, {"measurement": "animals with emesis", "setting": "beagle dogs", "result": "5 of 6"}, {"measurement": "episodes of emesis (total emetic events)", "setting": "beagle dogs", "result": 18}, {"measurement": "absolute bioavailability versus oral solution", "setting": "[2]", "result": "increased"}, {"measurement": "Cmax", "setting": "[2]; male, Beagle, iv, 0.05 mg/kg", "result": 6.95, "unit": "ng/mL"}, {"measurement": "concentration at 0.083 h", "setting": "[2]; [6]", "result": 6.96, "unit": "ng/mL"}, {"measurement": "concentration at 0.5 h", "setting": "[2]; [6]", "result": 4.47, "unit": "ng/mL"}, {"measurement": "concentration at 1 h", "setting": "[2]; [6]", "result": 3.81, "unit": "ng/mL"}, {"measurement": "concentration at 2 h", "setting": "[2]; [6]", "result": 2.29, "unit": "ng/mL"}, {"measurement": "concentration at 4 h", "setting": "[2]; [6]", "result": 1.74, "unit": "ng/mL"}, {"measurement": "concentration at 8 h", "setting": "[2]; [6]", "result": 1.08, "unit": "ng/mL"}, {"measurement": "concentration at 12 h", "setting": "[2]; [6]", "result": 0.76, "unit": "ng/mL"}, {"measurement": "concentration at 24 h", "setting": "[2]; [6]", "result": 0.67, "unit": "ng/mL"}, {"measurement": "concentration at 48 h", "setting": "[2]; [6]", "result": 0.23, "unit": "ng/mL"}, {"measurement": "concentration at 0.083 h", "setting": "[2]; [7]", "result": 7.81, "unit": "ng/mL"}, {"measurement": "concentration at 0.5 h", "setting": "[2]; [7]", "result": 5.52, "unit": "ng/mL"}, {"measurement": "concentration at 1 h", "setting": "[2]; [7]", "result": 3.55, "unit": "ng/mL"}, {"measurement": "concentration at 2 h", "setting": "[2]; [7]", "result": 2.13, "unit": "ng/mL"}, {"measurement": "concentration at 8 h", "setting": "[2]; [7]", "result": 0.8, "unit": "ng/mL"}, {"measurement": "half-life", "setting": "[2]; male, Beagle, iv, 0.05 mg/kg", "result": 621, "unit": "min"}, {"measurement": "Tmax", "setting": "[2]; male, Beagle, iv, 0.05 mg/kg, tmax", "result": 4.8, "unit": "min"}, {"measurement": "concentration at 0.5 h", "setting": "[2]; [8]", "result": 6.41, "unit": "ng/mL"}, {"measurement": "concentration at 1 h", "setting": "[2]; [8]", "result": 4.97, "unit": "ng/mL"}, {"measurement": "concentration at 2 h", "setting": "[2]; [8]", "result": 3.68, "unit": "ng/mL"}, {"measurement": "concentration at 4 h", "setting": "[2]; [8]", "result": 1.87, "unit": "ng/mL"}, {"measurement": "concentration at 8 h", "setting": "[2]; [8]", "result": 1.38, "unit": "ng/mL"}, {"measurement": "concentration at 12 h", "setting": "[2]; [8]", "result": 1.14, "unit": "ng/mL"}, {"measurement": "concentration at 24 h", "setting": "[2]; [8]", "result": 0.53, "unit": "ng/mL"}, {"measurement": "concentration at 48 h", "setting": "[2]; [8]", "result": 0.2, "unit": "ng/mL"}, {"measurement": "half-life", "setting": "[2]; male, Beagle, po, 0.15 mg/kg", "result": 810, "unit": "min"}, {"measurement": "Tmax", "setting": "[2]; male, Beagle, po, 0.15 mg/kg, tmax", "result": 34.8, "unit": "min"}, {"measurement": "Sample Conc. (plasma)", "setting": "[2]; male, Beagle, sc, 0.03 mg/kg, 48 h", "result": 0.12, "unit": "ng/mL"}, {"measurement": "Cmax", "setting": "[2]; male, Beagle, sc, 0.03 mg/kg", "result": 3.66, "unit": "ng/mL"}, {"measurement": "concentration at 0.5 h", "setting": "[2]; [9]", "result": 3.62, "unit": "ng/mL"}, {"measurement": "concentration at 1 h", "setting": "[2]; [9]", "result": 1.79, "unit": "ng/mL"}, {"measurement": "concentration at 2 h", "setting": "[2]; [9]", "result": 1.4, "unit": "ng/mL"}, {"measurement": "concentration at 4 h", "setting": "[2]; [9]", "result": 1, "unit": "ng/mL"}, {"measurement": "concentration at 8 h", "setting": "[2]; [9]", "result": 0.63, "unit": "ng/mL"}, {"measurement": "concentration at 12 h", "setting": "[2]; [9]", "result": 0.51, "unit": "ng/mL"}, {"measurement": "concentration at 24 h", "setting": "[2]; [9]", "result": 0.14, "unit": "ng/mL"}, {"measurement": "concentration at 0.5 h", "setting": "[2]; [10]", "result": 2.82, "unit": "ng/mL"}, {"measurement": "concentration at 1 h", "setting": "[2]; [10]", "result": 1.67, "unit": "ng/mL"}, {"measurement": "concentration at 48 h", "setting": "[2]; [10]", "result": 0.16, "unit": "ng/mL"}, {"measurement": "Tmax", "setting": "[2]; male, Beagle, sc, 0.03 mg/kg, tmax", "result": 30, "unit": "min"}, {"measurement": "Tmax", "setting": "[2]; male, beagle, po, 0.15 mg/kg", "result": 60, "unit": "min"}, {"measurement": "clinical signs of toxicity", "setting": "dogs; 0.15 mg/kg/day for up to 28 days", "result": "emesis and decreased activity during the first week of dosing"}, {"measurement": "tolerability", "setting": "dogs; high-dose group 0.15 mg/kg/day for up to 28 days", "result": "tolerated"}, {"measurement": "curative effects", "setting": "Plasmodium berghei", "result": "displayed curative effects"}, {"measurement": "parasitemias", "setting": "Plasmodium berghei", "result": "reduce parasitemias to undetectable levels"}, {"measurement": "muscle physiology / muscle regeneration", "setting": "mdx mice", "result": "effective in improving muscle physiology and/or reducing the pressure on muscle regeneration"}, {"measurement": "angiogenesis inhibition", "setting": "cell lines", "result": "effective angiogenesis inhibitor"}, {"measurement": "inhibition of DNA synthesis", "setting": "[3]", "result": "strong inhibitor of DNA synthesis"}, {"measurement": "growth of vascular SMC and fibroblasts", "setting": "[4]", "result": "inhibits autocrine growth of vascular SMC and fibroblasts"}, {"measurement": "gastrointestinal tract injuries", "setting": "mice; 5 mg/kg", "result": "widespread gastrointestinal tract injuries, e.g., intestinal hemorrhage"}, {"measurement": "gastrointestinal tract injuries", "setting": "mice; sc", "result": "did not experience the same levels of gastrointestinal tract injuries"}]}
